For data set [1], the system named is MOLM-14 cells. The data set is classed as cell-based. Particulars: for increase in IC50 (inhibition) in the presence of 50% human plasma: 50% human plasma vs 10% FBS.
A short description of data set [2]: Human AGP levels and tolerability in mice after intraperitoneal injection. The data set is classed as in vivo. To be noted: 0.3 g/kg i.p.
Data set [3] relates to FLT3. The format is cell-based.
The test system of data set [4] is HL-60 cells. Nature of the data set: Antiproliferative effect of staurosporine on HL-60 cells in the presence of AGP. The data set is classed as cell-based. To be noted: until saturating concentrations of drug were used.
For data set [5], the system named is Ba/F3-FLT3/ITD-Luc cells. The data set is classed as in vivo, BALB/c mice.

Like-named read-outs stand apart in the source and are kept apart here.

As to `CC(C)(C)c1cc(NC(=O)Nc2ccc(-c3cn4c(n3)sc3cc(OCCN5CCOCC5)ccc34)cc2)no1` [quizartinib], the “increase in IC50 (inhibition) in the presence of 50% human plasma” value in data set [1] (48 h MTT) is listed as 37 fold.

On to “human AGP: alpha-1-acid glycoprotein purified from human plasma (Sigma), injected i.p. into mice”, for which, in data set [2], the terminal half-life result is reported as “approximately 17 hours”.

Regarding `C[C@]12O[C@H](C[C@]1(O)CO)n1c3ccccc3c3c4c(c5c6ccccc6n2c5c31)CNC4=O` [lestaurtinib], the “FLT3 phosphorylation inhibition in the presence of human plasma” value in data set [3] (10 nmol/L and 100 nmol/L TKI, 50% human plasma) is on record as “no appreciable FLT3 TKI activity”. Also, in data set [1] (50% human plasma from healthy donors, 48 h), the “IC50 in 50% human plasma compared with 10% FBS” value was “IC50s were no longer reached”. Also, the “increase in IC50 (inhibition) in the presence of 50% human plasma” value in data set [1] (48 h MTT) is reported as “greater than 100 fold”. Also, the “activity across a range of AGP concentrations” value in data set [1] (AGP 31 µg/mL – 2 mg/mL, 48 h MTT) is “appreciable activity is seen only at AGP concentrations less than one tenth of physiologic human levels”. For the same molecule, the “IC50 increase by bovine AGP” value in data set [1] (bovine AGP adjusted to human-comparable levels) is on record as about 5 fold.

As for `CCc1nc(C(N)=O)c(Nc2ccc(N3CCC(N4CCN(C)CC4)CC3)c(OC)c2)nc1NC1CCOCC1` [gilteritinib], in data set [1] (50% human plasma or 50 mg/dL AGP, 48 h MTT), the “effect of plasma proteins on activity” value is reported as “minimally affected”.

As for `CNC(=O)c1cc(Oc2ccc(NC(=O)Nc3ccc(Cl)c(C(F)(F)F)c3)cc2)ccn1` [sorafenib], in data set [1] (48 h MTT), the “increase in IC50 (inhibition) in the presence of 50% human plasma” value is listed as “greater than 100 fold”.

Turning to `CN[C@@H]1C[C@H]2O[C@@](C)([C@@H]1OC)n1c3ccccc3c3c4c(c5c6ccccc6n2c5c31)C(=O)NC4` [staurosporine], the “antiproliferative activity in the presence of AGP” value in data set [4] is listed as “no appreciable activity”.

With `CC#C[C@]1(O)CC[C@H]2[C@@H]3CCC4=CC(=O)CCC4=C3[C@@H](c3ccc(N(C)C)cc3)C[C@@]21C` [mifepristone], in data set [3] (mifepristone alone), the “effect alone upon FLT3 autophosphorylation or downstream signaling” value was “no effect”. The “effect of mifepristone alone on cell growth” value in data set [1] (at concentrations of maximal effect, no TKI) is recorded as “no appreciable effect on cell growth”. Moreover, the “impact upon TTT-3002 dose–response curves in the absence of AGP” value in data set [1] (no AGP) was “had no impact”. Moreover, in data set [5] (midostaurin plus human AGP plus oral mifepristone), the “response of transplanted FLT3/ITD cells (bioluminescence day 9)” value is “regression of the transplanted cells comparable with those of the midostaurin alone–treated mice”.

In the case of `CO[C@@H]1[C@H](N(C)C(=O)c2ccccc2)C[C@H]2O[C@]1(C)n1c3ccccc3c3c4c(c5c6ccccc6n2c5c31)C(=O)NC4` [midostaurin], the “response of transplanted FLT3/ITD cells (bioluminescence day 9)” value in data set [5] (midostaurin alone, oral gavage 4 days) is “regression of the cells”; in data set [5] (midostaurin plus intraperitoneal human AGP), “progression of the cells comparable with that seen in the control animals”.

The record behind these values is article PMC8478262 (Blood Cancer Discovery, 2021).
